# Source: US11122789B2, “Termite preferred resource compositions and methods” (priority 2015, dated 2021)
# Where two headings read alike, the source gives them in different places.
# Tests used:
# Assay type in all cases: in vivo
# [1] = system: Coptotermes formosanus; settings: for INSECT ACTIVIIS 0-4: scale 0 death, 4 normal behaviour; for % Mortality: 0.15 % v/v on ground Sabal palm
# Experimental: (§1) Bioassay tubes were loaded with 0.2 g of finely ground Sabal palm materials into microtubes. One mL of dilute active ingredient (described below) was applied to the tube and fully absorbed by the palm materials. The tubes were placed in petri dishes on a 3 mm sand base. Thirty to forty workers and soldiers from the field-collected Reticulitermes and Coptotermes colonies were introduced to the petri dishes. Termite activity was evaluated on a 0-4 scale, with 0 denoting death and 4 indicating normal behaviour. Mortality was recorded weekly for up to 9 weeks, depending on survivorship.
# [2] = system: Reticulitermes flavipes; settings: for INSECT ACTIVIIS 0-4: scale 0 death, 4 normal behaviour; for % Mortality: 0.15 % v/v on ground Sabal palm
# Experimental: as §1
# [3] = system: Reticulitermes flavipes; settings: 10 ppmai; 2 DA-A
# [4] = 7.5 ppmai on ground Sabal palm, 5 DA-A
# [5] = 75 ppmai on ground Sabal palm, 5 DA-A
# [6] = 150 ppmai on ground Sabal palm, 5 DA-A
# [7] = 300 ppmai on ground Sabal palm, 5 DA-A
smiles,measurement,setting,value
CNC(=O)c1cc(Cl)cc(C)c1NC(=O)c1cc(Br)nn1-c1ncccc1Cl [Chlorantraniliprole],TUNNEL LENGTH,"[1]; 1 ppmai, 2 DA-A",4 CM
same,INSECT ACTIVIIS 0-4,"[1]; 1 ppmai, 2 DA-A",3.3 0-4
same,INSECT % MORTAL,"[1]; 1 ppmai, 7 DA-A",5.4%
same,INSECT ACTIVIIS 0-4,"[1]; 1 ppmai, 7 DA-A",3.8 0-4
same,INSECT % MORTAL,"[1]; 1 ppmai, 9 DA-A",2.3%
same,INSECT % MORTAL,"[1]; 1 ppmai, 20 DA-A",93.4%
same,INSECT ACTIVIIS 0-4,"[1]; 1 ppmai, 20 DA-A",0.5 0-4
same,TUNNEL LENGTH,"[1]; 10 ppmai, 2 DA-A",4 CM
same,INSECT ACTIVIIS 0-4,"[1]; 10 ppmai, 2 DA-A",4 0-4
same,INSECT % MORTAL,"[1]; 10 ppmai, 7 DA-A",1.3%
same,INSECT ACTIVIIS 0-4,"[1]; 10 ppmai, 7 DA-A",3.3 0-4
same,INSECT % MORTAL,"[1]; 10 ppmai, 9 DA-A",1.5%
same,INSECT % MORTAL,"[1]; 10 ppmai, 20 DA-A",91.1%
same,INSECT ACTIVIIS 0-4,"[1]; 10 ppmai, 20 DA-A",0.8 0-4
same,TUNNEL LENGTH,"[1]; 50 ppmai, 2 DA-A",1 CM
same,INSECT ACTIVIIS 0-4,"[1]; 50 ppmai, 2 DA-A",1.5 0-4
same,INSECT % MORTAL,"[1]; 50 ppmai, 7 DA-A",23.2%
same,INSECT ACTIVIIS 0-4,"[1]; 50 ppmai, 7 DA-A",1 0-4
same,INSECT % MORTAL,"[1]; 50 ppmai, 9 DA-A",90.8%
same,INSECT % MORTAL,"[1]; 50 ppmai, 20 DA-A",100%
same,INSECT ACTIVIIS 0-4,"[1]; 50 ppmai, 20 DA-A",0 0-4
same,TUNNEL LENGTH,"[1]; 100 ppmai, 2 DA-A",1.5 CM
same,INSECT ACTIVIIS 0-4,"[1]; 100 ppmai, 2 DA-A",1 0-4
same,INSECT % MORTAL,"[1]; 100 ppmai, 7 DA-A",60.5%
same,INSECT ACTIVIIS 0-4,"[1]; 100 ppmai, 7 DA-A",1 0-4
same,INSECT % MORTAL,"[1]; 100 ppmai, 9 DA-A",98.3%
same,INSECT % MORTAL,"[1]; 100 ppmai, 20 DA-A",100%
same,INSECT ACTIVIIS 0-4,"[1]; 100 ppmai, 20 DA-A",0 0-4
same,TUNNEL LENGTH,"[2]; 1 ppmai, 2 DA-A",4 CM
same,INSECT ACTIVIIS 0-4,"[2]; 1 ppmai, 2 DA-A",4 0-4
same,INSECT % MORTAL,"[2]; 1 ppmai, 7 DA-A",0.8%
same,INSECT ACTIVIIS 0-4,"[2]; 1 ppmai, 7 DA-A",4 0-4
same,INSECT % MORTAL,"[2]; 1 ppmai, 9 DA-A",2.4%
same,INSECT % MORTAL,"[2]; 1 ppmai, 20 DA-A",4.1%
same,INSECT ACTIVIIS 0-4,"[2]; 1 ppmai, 20 DA-A",4 0-4
same,INSECT ACTIVIIS 0-4,"[2]; 10 ppmai, 2 DA-A",3.3 0-4
same,INSECT % MORTAL,"[2]; 10 ppmai, 7 DA-A",0.2%
same,INSECT ACTIVIIS 0-4,"[2]; 10 ppmai, 7 DA-A",4 0-4
same,INSECT % MORTAL,"[2]; 10 ppmai, 9 DA-A",0.5%
same,INSECT % MORTAL,"[2]; 10 ppmai, 20 DA-A",4.92%
same,INSECT ACTIVIIS 0-4,"[2]; 10 ppmai, 20 DA-A",4 0-4
same,TUNNEL LENGTH,"[2]; 50 ppmai, 2 DA-A",2 CM
same,INSECT ACTIVIIS 0-4,"[2]; 50 ppmai, 2 DA-A",2.3 0-4
same,INSECT % MORTAL,"[2]; 50 ppmai, 7 DA-A",13%
same,INSECT ACTIVIIS 0-4,"[2]; 50 ppmai, 7 DA-A",2 0-4
same,INSECT % MORTAL,"[2]; 50 ppmai, 9 DA-A",94.7%
same,INSECT % MORTAL,"[2]; 50 ppmai, 20 DA-A",100%
same,INSECT ACTIVIIS 0-4,"[2]; 50 ppmai, 20 DA-A",0 0-4
same,TUNNEL LENGTH,"[2]; 100 ppmai, 2 DA-A",1 CM
same,INSECT ACTIVIIS 0-4,"[2]; 100 ppmai, 2 DA-A",1.3 0-4
same,INSECT % MORTAL,"[2]; 100 ppmai, 7 DA-A",15%
same,INSECT ACTIVIIS 0-4,"[2]; 100 ppmai, 7 DA-A",1 0-4
same,INSECT % MORTAL,"[2]; 100 ppmai, 9 DA-A",100%
same,INSECT % MORTAL,"[2]; 100 ppmai, 20 DA-A",100%
same,INSECT ACTIVIIS 0-4,"[2]; 100 ppmai, 20 DA-A",0 0-4
same,TUNNEL LENGTH,[3],4 CM
CNC(=O)c1cc(C#N)cc(C)c1NC(=O)c1cc(Br)nn1-c1ncccc1Cl [Cyantraniliprole],% MORT,"[1]; 5 ppmai on ground Sabal palm, 5 DA-A",0.5%
same,% MORT,"[1]; 5 ppmai on ground Sabal palm, 11 DA-A",1.2%
same,% MORT,"[1]; 5 ppmai on ground Sabal palm, 19 DA-A",1.2%
same,% MORT,"[1]; 5 ppmai on ground Sabal palm, 37 DA-A",1.2%
same,% MORT,"[1]; 50 ppmai on ground Sabal palm, 5 DA-A",3.9%
same,% MORT,"[1]; 50 ppmai on ground Sabal palm, 11 DA-A",100%
same,% MORT,"[1]; 50 ppmai on ground Sabal palm, 19 DA-A",100%
same,% MORT,"[1]; 50 ppmai on ground Sabal palm, 37 DA-A",100%
same,% MORT,"[1]; 100 ppmai on ground Sabal palm, 5 DA-A",49.3%
same,% MORT,"[1]; 100 ppmai on ground Sabal palm, 11 DA-A",100%
same,% MORT,"[1]; 100 ppmai on ground Sabal palm, 19 DA-A",100%
same,% MORT,"[1]; 100 ppmai on ground Sabal palm, 37 DA-A",100%
same,% MORT,"[1]; 200 ppmai on ground Sabal palm, 5 DA-A",80.1%
same,% MORT,"[1]; 200 ppmai on ground Sabal palm, 11 DA-A",100%
same,% MORT,"[1]; 200 ppmai on ground Sabal palm, 19 DA-A",100%
same,% MORT,"[1]; 200 ppmai on ground Sabal palm, 37 DA-A",100%
COC(=O)N(C(=O)N1CO[C@@]2(C(=O)OC)Cc3cc(Cl)ccc3C2=N1)c1ccc(OC(F)(F)F)cc1 [Indoxacarb],% MORT,[1]; [4],0%
same,% MORT,"[1]; 7.5 ppmai on ground Sabal palm, 7 DA-A",0%
same,% MORT,"[1]; 7.5 ppmai on ground Sabal palm, 12 DA-A",0%
same,% MORT,"[1]; 7.5 ppmai on ground Sabal palm, 20 DA-A",2.5%
same,% MORT,"[1]; 7.5 ppmai on ground Sabal palm, 28 DA-A",5%
same,% MORT,"[1]; 7.5 ppmai on ground Sabal palm, 42 DA-A",90%
same,% MORT,[1]; [5],0.013%
same,% MORT,"[1]; 75 ppmai on ground Sabal palm, 7 DA-A",0.038%
same,% MORT,"[1]; 75 ppmai on ground Sabal palm, 12 DA-A",11.68%
same,% MORT,"[1]; 75 ppmai on ground Sabal palm, 20 DA-A",35%
same,% MORT,"[1]; 75 ppmai on ground Sabal palm, 28 DA-A",93.8%
same,% MORT,"[1]; 75 ppmai on ground Sabal palm, 42 DA-A",100%
same,% MORT,[1]; [6],0%
same,% MORT,"[1]; 150 ppmai on ground Sabal palm, 7 DA-A",0.013%
same,% MORT,"[1]; 150 ppmai on ground Sabal palm, 12 DA-A",17.48%
same,% MORT,"[1]; 150 ppmai on ground Sabal palm, 20 DA-A",37.5%
same,% MORT,"[1]; 150 ppmai on ground Sabal palm, 28 DA-A",98.8%
same,% MORT,"[1]; 150 ppmai on ground Sabal palm, 42 DA-A",100%
same,% MORT,[1]; [7],0%
same,% MORT,"[1]; 300 ppmai on ground Sabal palm, 7 DA-A",0%
same,% MORT,"[1]; 300 ppmai on ground Sabal palm, 12 DA-A",17.5%
same,% MORT,"[1]; 300 ppmai on ground Sabal palm, 20 DA-A",93.8%
same,% MORT,"[1]; 300 ppmai on ground Sabal palm, 28 DA-A",100%
same,% MORT,"[1]; 300 ppmai on ground Sabal palm, 42 DA-A",100%
same,% MORT,"[2]; 7.5 ppmai on ground Sabal palm, 3 DA-A",9.66%
same,% MORT,[2]; [4],56.71%
same,% MORT,"[2]; 7.5 ppmai on ground Sabal palm, 10 DA-A",99.79%
same,% MORT,"[2]; 75 ppmai on ground Sabal palm, 3 DA-A",16.59%
same,% MORT,[2]; [5],87.91%
same,% MORT,"[2]; 75 ppmai on ground Sabal palm, 10 DA-A",100%
same,% MORT,"[2]; 150 ppmai on ground Sabal palm, 3 DA-A",22.94%
same,% MORT,[2]; [6],87.84%
same,% MORT,"[2]; 150 ppmai on ground Sabal palm, 10 DA-A",100%
same,% MORT,"[2]; 300 ppmai on ground Sabal palm, 3 DA-A",47.09%
same,% MORT,[2]; [7],98.42%
same,% MORT,"[2]; 300 ppmai on ground Sabal palm, 10 DA-A",100%
O=C(NC(=O)c1c(F)cccc1F)Nc1cc(Cl)c(OC(F)(F)C(F)C(F)(F)F)cc1Cl (stereo not shown) [Lufenuron],% Mortality,[1]; 4 DA-A,4.38%
same,% Mortality,[1]; 7 DA-A,7.5%
same,% Mortality,[1]; 11 DA-A,14.38%
same,% Mortality,[1]; 18 DA-A,21.25%
same,% Mortality,[1]; 25 DA-A,45%
same,% Mortality,[1]; 32 DA-A,93.8%
same,% Mortality,[1]; 41 DA-A,100%
same,% Mortality,[2]; 4 DA-A,11.25%
same,% Mortality,[2]; 7 DA-A,50%
same,% Mortality,[2]; 11 DA-A,51.25%
same,% Mortality,[2]; 18 DA-A,51.25%
same,% Mortality,[2]; 25 DA-A,51.88%
same,% Mortality,[2]; 32 DA-A,68.75%
same,% Mortality,[2]; 41 DA-A,70.63%
same,% Mortality,[2]; 53 DA-A,86.25%
same,% Mortality,[2]; 63 DA-A,96.25%
